pIC50: −log10 of the molar value.
Experiments:
ATX = ATX (Homo sapiens, UniProt Q13822); assay: Enzyme activity screening in vitro with LPC as substrate (Amplex Red fluorescence); type: biochemical; conditions: inhibitory activity against ATX
Text: Analysis In Vitro: LPC was Used as Substrate for Screening Enzyme Activity
Principle: Lysophosphatidylcholine (LPC) as substrate is hydrolyzed by using the activity of lysoPLD enzyme, to produce lysophosphatidic acid (LPA) and choline, which is oxidized to produce H2O2 under the action of choline oxidase. In presence of horse radish peroxidase (HPR), Amplex Red reagent is reacted with H2O2 in a quantitative chemistry ratio of 1 to 1, to produce strong fluorescence products, which are detected by a fluorescent quantitative test.
20 μl of the above mixed solution 1 was added to each hole of an experiment board, […]. The compounds diluted with DMSO were transferred into an experiment board with Echo550. The reaction buffer solution was used for preparing a mixed solution 2 of […] LPC and 400 μM Amplex Red in a final concentration. 20 μl of the above mixed solution 2 was added to each hole of the experiment board. After addition, the experiment board was shook for 30 seconds on a shaker, and incubated for 30 minutes. Envision was used to read the fluorescence signals with an exciting light at 530 nm and emitted light at 590 nm.

[1] = Pharmacokinetics test in mice; type: in vivo; conditions: male SD mice; for F: absolute bioavailability, oral 5 mg/kg vs intravenous 1 mg/kg; for AUC / half-life: mouse, plasma
Text: Pharmacokinetics Test in Mice
Male SD mice were selected for pharmacokinetics test study, plasma concentration at different time points were quantitatively determined by LC/MS/MS method after the mice were intravenously injected and orally administrated with the compounds to be tested, thereby evaluating pharmacokinetics characteristic of the compounds to be tested in SD mice.
SD mice (free food and drink, 6 to 8 weeks old) were intravenously administrated via a foot injection with a clear solution of the compounds to be tested, alternatively, SD mice (free food and drink, 6 to 8 week old) were intragastrically administrated with a suspension of the compounds to be tested. Blood samples were collected from the tail veins of the mice 0.083, 0.25, 0.5, 1, 2, 4, 6, 8, 10, and 24 hours after administration, and each sampling was 0.15 mL. All collected blood samples were placed into centrifuge tubes with EDTA-K2, turned upside and down to mix the anticoagulant with the blood well. The plasma was separated by centrifugation at 1500 g for 10 min at 4° C. within […]. The plasma sample was transferred into a new centrifuge tube and stored at −90° C. to −60° C. until the analysis was performed. LC-MS/MS was used to measure the blood concentration of the compounds to be tested of the present disclosure, and the pharmacokinetic parameters, as well as absolute bioavailability, were calculated by a non-compartment model in Pharsight Phoenix 8.0 software, as shown in Table 2.

[2] = Intravenous injection (1 mg/kg)

| SMILES | pIC50 (ATX) | further results |
| --- | --- | --- |
| CCc1nc2sc(C3CCN(CC(=O)N4CC(O)C4)CC3)cn2c1N(CC)c1nc(-c2ccc(F)cc2)c(C#N)s1 [Embodiment 1, 2-(ethyl(6-ethyl-2-(1-(2-(3-hydroxyazetidin-1-yl)-2-oxoethyl)piperidin-4-yl)imidazo[2,1-b]thiazol-5-yl)amino)-4-(4-fluorophenyl)thiazole-5-carbonitrile] | 7.00 to 11.00 | F [1]: 70%; AUC [1, 2]: 1670 ng·h/mL; half-life [1, 2]: 4.18 h; AUC ([1]; Oral administration (5 mg/kg)): 5800 ng·h/mL; half-life ([1]; Oral administration (5 mg/kg)): 3.21 h |
| CCc1nc2sc(C3CCN(CC(=O)N4CC(O)C4)CC3)cn2c1N(CC1CC1)c1nc(-c2ccc(F)cc2)c(C#N)s1 [Embodiment 2, 2-(cyclopropylmethyl(6-ethyl-2-(1-(2-(3-hydroxyazetidin-1-yl)-2-oxoethyl)piperidin-4-yl)imidazo[2,1-b]thiazol-5-yl)amino)-4-(4-fluorophenyl) thiazole-5-carbonitrile] | 7.00 to 11.00 | F [1]: 54%; AUC [1, 2]: 972 ng·h/mL; half-life [1, 2]: 2.84 h; AUC ([1]; Oral administration (5 mg/kg)): 2720 ng·h/mL; half-life ([1]; Oral administration (5 mg/kg)): 3.63 h |
| CCc1nc2sc(C3CCN(CC(=O)NCCO)CC3)cn2c1N(CC)c1nc(-c2ccc(F)cc2)c(C#N)s1 [Embodiment 3, 2-(4-(5-((5-cyano-4-(4-fluorophenyl)thiazol-2-yl)(ethyl)amino)-6-ethylimidazo[2,1-b]thiazol-2-yl]piperidin-1-yl)-N-(2-hydroxyethyl)acetamide] | 6.30 to 7.00 |  |
| CCc1nc2sc(C3CCN(CC(=O)N(C)CCO)CC3)cn2c1N(CC)c1nc(-c2ccc(F)cc2)c(C#N)s1 [Embodiment 4, 2-(4-(5-((5-cyano-4-(4-fluorophenyl)thiazol-2-yl)(ethyl)amino)-6-ethylimidazo[2,1-b]thiazol-2-yl]piperidin-1-yl)-N-(2-hydroxyethyl)-N-methylacetamide] | 7.00 to 11.00 |  |
| CCc1nc2sc(C3CCN(CC(=O)NC4CC(O)C4)CC3)cn2c1N(CC)c1nc(-c2ccc(F)cc2)c(C#N)s1 (centres unmarked) [Embodiment 5, 2-(4-(5-((5-cyano-4-(4-fluorophenyl)thiazol-2-yl)(ethyl)amino)-6-ethylimidazo[2,1-b]thiazol-2-yl]piperidin-1-yl)-N-(3-hydroxycyclobutyl)acetamide] | 7.00 to 11.00 |  |
| CCc1nc2sc(C3CCN(CC(=O)N4CC(O)C4)CC3)cn2c1N(CC(F)(F)F)c1nc(-c2ccc(F)cc2)c(C#N)s1 [Embodiment 6, 2-((6-ethyl-2-(1-(2-(3-hydroxyazetidin-1-yl)-2-oxoethyl)piperidin-4-yl)imidazo[2,1-b]thiazol-5-yl)(2,2,2,-trifluoroethyl)amino)-4-(4-fluorophenyl)thiazole-5-carbonitrile] | 7.00 to 11.00 |  |
| [2H]C([2H])([2H])C([2H])([2H])N(c1nc(-c2ccc(F)cc2)c(C#N)s1)c1c(CC)nc2sc(C3CCN(CC(=O)N4CC(O)C4)CC3)cn12 [Embodiment 7, 2-((ethyl-d5)(6-ethyl-2-(1-(2-(3-hydroxyazetidin-1-yl)-2-oxoethyl)piperidin-4-yl)imidazo[2,1-b]thiazol-5-yl)amino)-4-(4-fluorophenyl)thiazole-5-carbonitrile] | 7.00 to 11.00 | F [1]: 65%; AUC [1, 2]: 1480 ng·h/mL; half-life [1, 2]: 3.97 h; AUC ([1]; Oral administration (5 mg/kg)): 4810 ng·h/mL; half-life ([1]; Oral administration (5 mg/kg)): 2.81 h |
| CCc1nc2sc(C3CCN(CC(=O)NCC(C)(C)O)CC3)cn2c1N(CC)c1nc(-c2ccc(F)cc2)c(C#N)s1 [Embodiment 8, 2-(4-(5-((5-cyano-4-(4-fluorophenyl)thiazol-2-yl)(ethyl)amino)-6-ethylimidazo[2,1-b]thiazol-2-yl)piperidin-1-yl)-N-(2-hydroxy-2-methylpropyl)acetamide] | 7.00 to 11.00 |  |
| CCc1nc2sc(C3CCN(CC(=O)NCC(C)(C)CO)CC3)cn2c1N(CC)c1nc(-c2ccc(F)cc2)c(C#N)s1 [Embodiment 9, 2-(4-(5-((5-cyano-4-(4-fluorophenyl)thiazol-2-yl)(ethyl)amino)-6-ethylimidazo[2,1-b]thiazol-2-yl)piperidin-1-yl)-N-(3-hydroxy-2,2-dimethylpropyl)acetamide] | 7.00 to 11.00 |  |
| CCc1nc2sc(C3CCN(CC(=O)N(C)CCC#N)CC3)cn2c1N(CC)c1nc(-c2ccc(F)cc2)c(C#N)s1 [Embodiment 10, 2-(4-(5-((5-cyano-4-(4-fluorophenyl)thiazol-2-yl)(ethyl)amino)-6-ethylimidazo[2,1-b]thiazol-2-yl)piperidin-1-yl)-N-(2-cyanoethyl)-N-methylacetamide] | 7.00 to 11.00 |  |
| CCc1nc2sc(C3CCN(CC(=O)NC4(CO)CC4)CC3)cn2c1N(CC)c1nc(-c2ccc(F)cc2)c(C#N)s1 [Embodiment 12, 2-(4-(5-((5-cyano-4-(4-fluorophenyl)thiazol-2-yl)(ethyl)amino)-6-ethylimidazo[2,1-b]thiazol-2-yl)piperidin-1-yl)-N-(1-(hydroxymethyl)cyclopropyl)acetamide] | 7.00 to 11.00 |  |
| CCc1nc2sc(C3CCN(CC(=O)NC(C)CO)CC3)cn2c1N(CC)c1nc(-c2ccc(F)cc2)c(C#N)s1 (centres unmarked) [Embodiment 13, 2-(4-(5-((5-cyano-4-(4-fluorophenyl)thiazol-2-yl)(ethyl)amino)-6-ethylimidazo[2,1-b]thiazol-2-yl)piperidin-1-yl)-N-(1-hydroxypropan-2-yl)acetamide] | 6.30 to 7.00 |  |
| CCc1nc2sc(C3CCN(CC(=O)NC(C)(C)CO)CC3)cn2c1N(CC)c1nc(-c2ccc(F)cc2)c(C#N)s1 [Embodiment 14, 2-(4-(5-((5-cyano-4-(4-fluorophenyl)thiazol-2-yl)(ethyl)amino)-6-ethylimidazo[2,1-b]thiazol-2-yl)piperidin-1-yl)-N-(1-hydroxy-2-methylpropan-2-yl)acetamide] | 7.00 to 11.00 |  |
| CCc1nc2sc(C3CCN(CC(=O)NCC4(O)CC4)CC3)cn2c1N(CC)c1nc(-c2ccc(F)cc2)c(C#N)s1 [Embodiment 15, 2-(4-(5-((5-cyano-4-(4-fluorophenyl)thiazol-2-yl)(ethyl)amino)-6-ethylimidazo[2,1-b]thiazol-2-yl)piperidin-1-yl)-N-((1-hydroxycyclopropyl)methyl)acetamide] | 6.30 to 7.00 |  |
| CCc1nc2sc(C3CCN(CC(=O)NCC4(O)CCC4)CC3)cn2c1N(CC)c1nc(-c2ccc(F)cc2)c(C#N)s1 [Embodiment 16, 2-(4-(5-((5-cyano-4-(4-fluorophenyl)thiazol-2-yl)(ethyl)amino)-6-ethylimidazo[2,1-b]thiazol-2-yl)piperidin-1-yl)-N-((1-hydroxycyclobutyl)methyl) acetamide] | 7.00 to 11.00 |  |
| CCc1nc2sc(C3CCN(CC(=O)NC4CC(F)(F)C4)CC3)cn2c1N(CC)c1nc(-c2ccc(F)cc2)c(C#N)s1 [Embodiment 17, 2-(4-(5-((5-cyano-4-(4-fluorophenyl)thiazol-2-yl)(ethyl)amino)-6-ethylimidazo[2,1-b]thiazol-2-yl)piperidin-1-yl)-N-(3,3-difluorocyclobutyl)acetamide] | 6.30 to 7.00 |  |
| CCc1nc2sc(C3CCN(CC(=O)NCC4CC4)CC3)cn2c1N(CC)c1nc(-c2ccc(F)cc2)c(C#N)s1 [Embodiment 18, 2-(4-(5-((5-cyano-4-(4-fluorophenyl)thiazol-2-yl)(ethyl)amino)-6-ethylimidazo[2,1-b]thiazol-2-yl)piperidin-1-yl)-N-(cyclopropylmethyl)acetamide] | 6.30 to 7.00 |  |
| CCc1nc2sc(C3CCN(CC(=O)NCC4CCC4)CC3)cn2c1N(CC)c1nc(-c2ccc(F)cc2)c(C#N)s1 [Embodiment 19, 2-(4-(5-((5-cyano-4-(4-fluorophenyl)thiazol-2-yl)(ethyl)amino)-6-ethylimidazo[2,1-b]thiazol-2-yl)piperidin-1-yl)-N-(cyclobutylmethyl)acetamide] | 7.00 to 11.00 |  |
| CCc1nc2sc(C3CCN(CC(=O)NC4CCOCC4)CC3)cn2c1N(c1nc(-c2ccc(F)cc2)c(C#N)s1)C(C)C [Embodiment 26, 2-(4-(5-((5-cyano-4-(4-fluorophenyl)thiazol-2-yl)(isopropyl)amino)-6-ethylimidazo[2,1-b]thiazol-2-yl)piperidin-1-yl)-N-(tetrahydro-2H-pyran-4-yl)acetamide] | 7.00 to 11.00 |  |
| CCc1nc2sc(C3CCN(CC(=O)NC4COC4)CC3)cn2c1N(c1nc(-c2ccc(F)cc2)c(C#N)s1)C(C)C [Embodiment 27, 2-(4-(5-((5-cyano-4-(4-fluorophenyl)thiazol-2-yl)(isopropyl)amino)-6-ethylimidazo[2,1-b]thiazol-2-yl)piperidin-1-yl)-N-(oxacyclobut-3-yl)acetamide] | 7.00 to 11.00 |  |

Source: patent US20240002401A1, “IMIDAZOTHIAZOLE COMPOUNDS, PHARMACEUTICAL COMPOSITIONS, AND USES THEREOF” (GUANGZHOU HENOVCOM BIOSCIENCE CO., LTD., priority 2020, published 2024)
